How the values were obtained:
[1] = test system: dystrophic New Hampshire chickens, line 413; test: Flip test (flip number FN, out of five attempts); assay type: in vivo, chicken
Method: (§1) The compound IAPP was tested on dystrophic New Hampshire chickens, line 413, and Imperial College (London, England) sub-line of the original Davis, University of California strain. The chickens are homozygous for muscular dystrophy, the disease appearing with 100% incidence.
The animal is placed on its back in the supine position. The number of times it is able to rise, out of five attempts, is known as the flip number (FN). The normal chicken invariably scores 5 (out of 5 attempts), whereas in an untreated dystrophic chicken, the number declines to zero in 6-8 weeks. The test is performed once every […], seven days; more frequent assessment introduces an exercise factor and is not recommended.
The drug was administered daily in water, injected intra-peritoneally, the amount being adjusted on a weekly basis according to the animal's weight.
(§2) Finally, oral therapy with IAPP was undertaken at gradually increasing dosages up to 1 g/Kg/day. The parameters (physical, biochemical and histological) measured previously were again used to test the efficacy of the drug; five different dosages were used orally, each being given for 30-60 days, daily (Tables VII-XI). A total of 75 animals were treated in the current study with IAPP and 70 control animals were used.

Dystrophic monocytes = test: Effect on human monocytes in culture (flat cells), dystrophic; assay type: cell-based; conditions: dystrophic monocytes + IAPP, six individuals, cultured 5-7 days; without IAPP 36.2%; preliminary
[2] = test system: dystrophic New Hampshire chickens, line 413; test: Wing apposition (WA) measurements; assay type: in vivo, chicken
Method: as §1
This can be defined as the minimum separation in cm to which the two wing tips can be passively raised, providing a measure of the characteristic loss is flexibility of the wing muscle-tendon system. The test is performed once weekly. In dystrophic birds, WA changes after the first three weeks of life from 0 cm (wings raised and touching) to about 18 cm at 3 months (wings stiff and can barely be raised). The normal controls maintain a score of 0 cm throughout. […]
as §2

[3] = test system: dystrophic New Hampshire chickens, line 413; test: Overall assessment of chemotherapy over all parameters measured; assay type: in vivo, chicken
Method: as §1
Chemotherapy was assessed by application of seven different parameters: physical tests of muscular disability, namely the flip test and wing apposition (W.A.) measurements; biochemical assays of serum and muscle enzume levels of creatine phosphokinase (CPK), pyruvate kinase (PK) and acetylcholinesterase (AChE); and histological comparisons of treated and untreated muscle. Toxicity studies (weight loss, etc.) were also used. A very comprehensive profile of the drug was thus obtained which related to all the known, highly characteristic features of the disease which are applicable to both the animal model and the human. […]

[4] = 200 mg/Kg i.p. daily for 28 days
[5] = oral 1 g/Kg daily, first four weeks

For CC(C)Nc1ncccn1.O=P(O)(O)O [IAPP, 2-isopropylaminopyrimidine orthophosphate], the “FN (out of 5 attempts), treated” value ([1]; 200 mg/Kg i.p. daily for 30 days, day 28 ex ovo, control 4.9) was 5.0, the “FN (out of 5 attempts), treated” value ([1]; 200 mg/Kg i.p. daily for 30 days, day 45 ex ovo, control 3.5) was 3.3 and the “FN (out of 5 attempts), treated” value ([1]; 200 mg/Kg i.p. daily for 30 days, day 84 ex ovo, control 0.7) was 1.4. The Mean flip number ([1]; 200 mg/Kg i.p., further 56 days after injections ceased) was “slightly improved”, the “FN (out of 5 attempts), treated” value ([1]; 300 mg/Kg i.p. daily for 30 days, day 28 ex ovo, control 4.9) was 4.5 and the “FN (out of 5 attempts), treated” value ([1]; 300 mg/Kg i.p. daily for 30 days, day 45 ex ovo, control 3.5) was 2.3. For the same compound, the “FN (out of 5 attempts), treated” value ([1]; 300 mg/Kg i.p. daily for 30 days, day 84 ex ovo, control 0.7) was 0.1, the “FN (out of 5 attempts), treated” value ([1]; 300 mg/Kg i.p. three times weekly for 30 days, day 28 ex ovo, control 4.9) was 4.5 and the “FN (out of 5 attempts), treated” value ([1]; 300 mg/Kg i.p. three times weekly for 30 days, day 45 ex ovo, control 3.5) was 2.7. The “FN (out of 5 attempts), treated” value ([1]; 300 mg/Kg i.p. three times weekly for 30 days, day 84 ex ovo, control 0.7) was 0.6, the “FN Treated (out of 5 attempts)” value ([1]; Exp. 2, 40 mg/Kg i.p. daily, day 7-13, control 4.5) was 4.9 and the “FN Treated (out of 5 attempts)” value ([1]; Exp. 2, 40 mg/Kg i.p. daily, day 14-20, control 4.8) was 5.0. For the same compound, the “FN Treated (out of 5 attempts)” value ([1]; Exp. 2, 40 mg/Kg i.p. daily, day 35-41, control 2.8) was 5.0, the “FN Treated (out of 5 attempts)” value ([1]; Exp. 2, 40 mg/Kg i.p. daily, day 49-55, control 2.0) was 4.5 and the “FN Treated (out of 5 attempts)” value ([1]; Exp. 2, 40 mg/Kg i.p. daily, day 56-62, control 1.4) was 3.8. For the same compound, the “FN Treated (out of 5 attempts)” value ([1]; Exp. 2, 40 mg/Kg i.p. daily, day 63-71, control 0.9) was 2.3, the “FN Treated (out of 5 attempts)” value ([1]; Exp. 3, 70 mg/Kg i.p. daily, day 14-20, control 5) was 5 and the “FN Treated (out of 5 attempts)” value ([1]; Exp. 3, 70 mg/Kg i.p. daily, day 21-27, control 4.8) was 5. The “FN Treated (out of 5 attempts)” value ([1]; Exp. 3, 70 mg/Kg i.p. daily, day 28-34, control 5) was 5, the “FN (out of 5 attempts), treated” value ([1]; Table VII, oral 200 mg/Kg, 60 days, day 28 ex ovo, control 5.0) was 4.1 and the “FN (out of 5 attempts), treated” value ([1]; Table VII, oral 200 mg/Kg, 60 days, day 35 ex ovo, control 4.4) was 3.6. The “FN (out of 5 attempts), treated” value ([1]; Table VII, oral 200 mg/Kg, 60 days, day 45 ex ovo, control 3.2) was 2.4, the “FN (out of 5 attempts), treated” value ([1]; Table VII, oral 200 mg/Kg, 60 days, day 60 ex ovo, control 2.8) was 1.8 and the “FN (out of 5 attempts), treated” value ([1]; oral 300 mg/Kg daily, day 28 ex ovo, control 4.8) was 4.7. For the same compound, the “FN (out of 5 attempts), treated” value ([1]; oral 300 mg/Kg daily, day 35 ex ovo, control 4.7) was 4.4, the “FN (out of 5 attempts), treated” value ([1]; oral 450 mg/Kg daily for 45 days, day 28 ex ovo, control 5.0) was 5.0 and the “FN (out of 5 attempts), treated” value ([1]; oral 450 mg/Kg daily for 45 days, day 35 ex ovo, control 3.6) was 4.8. For the same compound, the “FN (out of 5 attempts), treated” value ([1]; oral 450 mg/Kg daily for 45 days, day 45 ex ovo, control 1.7) was 2, the “FN (out of 5 attempts), treated” value ([1]; oral 450 mg/Kg daily for 45 days, day 50 ex ovo, control 1.4) was 1 and the “FN (out of 5 attempts), treated” value ([1]; oral 600 mg/Kg daily, day 28 ex ovo, control 5.0) was 5.0. The “FN (out of 5 attempts), treated” value ([1]; oral 600 mg/Kg daily, day 35 ex ovo, control 3.6) was 4.3, the “FN (out of 5 attempts), treated” value ([1]; oral 600 mg/Kg daily, day 45 ex ovo, control 1.7) was 2.7 and the “FN (out of 5 attempts), treated” value ([1]; oral 600 mg/Kg daily, day 50 ex ovo, control 1.4) was 2.3. For the same compound, the “FN (out of 5 attempts), treated” value ([1]; oral 1 g/Kg daily, day 28 ex ovo, control 1.7) was 3.5, the “Birds able to rise from supine 5 times out of 5 attempts” value ([1]; oral 1 g/Kg daily, first four weeks, dystrophic controls 20%) was “Fifty” and the “% Flat Cells” value (Dystrophic monocytes) was 45.1%. The “WA, treated” value ([2]; 200 mg/Kg i.p. daily for 30 days, day 28 ex ovo, control 0.4) was 1.0 cm, the “WA, treated” value ([2]; 200 mg/Kg i.p. daily for 30 days, day 45 ex ovo, control 0.6) was 1.5 cm and the “WA, treated” value ([2]; 200 mg/Kg i.p. daily for 30 days, day 84 ex ovo, control 8.3) was 8.6 cm. The “WA, treated” value ([2]; 300 mg/Kg i.p. daily for 30 days, day 28 ex ovo, control 0.4) was 0.3 cm, the “WA, treated” value ([2]; 300 mg/Kg i.p. daily for 30 days, day 45 ex ovo, control 0.6) was 1.6 cm and the “WA, treated” value ([2]; 300 mg/Kg i.p. daily for 30 days, day 84 ex ovo, control 9.3) was 14.4 cm. The “WA, treated” value ([2]; 300 mg/Kg i.p. three times weekly for 30 days, day 28 ex ovo, control 0.4) was 0.3 cm, the “WA, treated” value ([2]; 300 mg/Kg i.p. three times weekly for 30 days, day 45 ex ovo, control 0.6) was 2.0 cm and the “WA, treated” value ([2]; 300 mg/Kg i.p. three times weekly for 30 days, day 84 ex ovo, control 8.3) was 11.1 cm. The “WA, treated” value ([2]; Exp. 2, 40 mg/Kg i.p. daily, day 7-13, control 0) was 0 cm, the “WA, treated” value ([2]; Exp. 2, 40 mg/Kg i.p. daily, day 14-20, control 0) was 0 cm and the “WA, treated” value ([2]; Exp. 2, 40 mg/Kg i.p. daily, day 21-27, control 0) was 0 cm. For the same compound, the “WA, treated” value ([2]; Exp. 2, 40 mg/Kg i.p. daily, day 28-34, control 0) was 0 cm, the “WA, treated” value ([2]; Exp. 2, 40 mg/Kg i.p. daily, day 35-41, control 2.1) was 0 cm and the “WA, treated” value ([2]; Exp. 2, 40 mg/Kg i.p. daily, day 42-48, control 4.7) was 2.3 cm. For the same compound, the “WA, treated” value ([2]; Exp. 2, 40 mg/Kg i.p. daily, day 56-62, control 5.7) was 2.9 cm, the “WA, treated” value ([2]; Exp. 2, 40 mg/Kg i.p. daily, day 63-71, control 7.5) was 6.1 cm and the “WA, treated” value ([2]; Exp. 3, 70 mg/Kg i.p. daily, day 14-20, control 0) was 0 cm. For the same compound, the “WA, treated” value ([2]; Exp. 3, 70 mg/Kg i.p. daily, day 21-27, control 0) was 0 cm, the “WA, treated” value ([2]; Exp. 3, 70 mg/Kg i.p. daily, day 28-34, control 0) was 0 cm and the “WA, treated” value ([2]; Table VII, oral 200 mg/Kg, 60 days, day 28 ex ovo, control 0.8) was 0.8 cm. The “WA, treated” value ([2]; Table VII, oral 200 mg/Kg, 60 days, day 35 ex ovo, control 1.2) was 2.5 cm, the “WA, treated” value ([2]; Table VII, oral 200 mg/Kg, 60 days, day 45 ex ovo, control 3.4) was 4.3 cm and the “WA, treated” value ([2]; Table VII, oral 200 mg/Kg, 60 days, day 60 ex ovo, control 9.6) was 10.7 cm. The “WA, treated” value ([2]; oral 300 mg/Kg daily, day 28 ex ovo, control 1.6) was 1.4 cm, the “WA, treated” value ([2]; oral 300 mg/Kg daily, day 35 ex ovo, control 1.3) was 4.5 cm and the “WA, treated” value ([2]; oral 450 mg/Kg daily for 45 days, day 28 ex ovo, control 0.2) was 0.7 cm. The “WA, treated” value ([2]; oral 450 mg/Kg daily for 45 days, day 35 ex ovo, control 2.8) was 1.9 cm, the “WA, treated” value ([2]; oral 450 mg/Kg daily for 45 days, day 45 ex ovo, control 5.5) was 5.8 cm and the “WA, treated” value ([2]; oral 450 mg/Kg daily for 45 days, day 50 ex ovo, control 6.2) was 7.6 cm. For the same compound, the “WA, treated” value ([2]; oral 600 mg/Kg daily, day 28 ex ovo, control 0.2) was 0.3 cm, the “WA, treated” value ([2]; oral 600 mg/Kg daily, day 35 ex ovo, control 2.8) was 1.1 cm and the “WA, treated” value ([2]; oral 600 mg/Kg daily, day 45 ex ovo, control 5.5) was 3.5 cm. For the same compound, the “WA, treated” value ([2]; oral 600 mg/Kg daily, day 50 ex ovo, control 6.2) was 5.5 cm, the Physical performance [3, 4] was “not significantly improved” and the “Reduction in plasma enzyme levels” value [3, 4] was “large reduction in plasma enzume levels”. For the same compound, the “Persistence of enzyme reduction after injections ceased” value ([3]; 200 mg/Kg i.p., CPK, PK, AChE reduced from control values) was 56 days, the Plasma enzyme activities ([3]; 300 mg/Kg i.p. daily) was “greatly reduced” and the “Persistence of reduced plasma enzyme levels after treatment ceased” value ([3]; 300 mg/Kg i.p. three times weekly) was 56 days. The “Reductions in plasma enzyme levels vs daily therapy” value ([3]; 300 mg/Kg three times weekly) was “very comparable reductions in plasma enzyme levels”, the “Difference between treated and dystrophic control animals, parameters measured” value ([3]; Exp. 1, 30 mg/Kg i.p. daily) was “no significant differents” and the “Flip number and wing apposition” value ([3]; Exp. 2, 40 mg/Kg) was “significant improvement”. For the same compound, the “Effect on all parameters measured” value ([3]; Exp. 2, 40 mg/Kg i.p. daily) was “significant effect of IAPP on all parameters measured”, the “CPK, PK and AChE enzyme levels” value ([3]; Exp. 2, 40 mg/Kg, effect declining at end of 10-week experiment) was “reduced dramatically” and the minimal effective dose ([3]; Gallus gallus, ip, read-out: Minimum concentration found effective) was 40 mg/kg. The “Effect on physical performance parameters” value ([3]; oral 200 mg/Kg, 60 days) was “no effect”, the “Enzyme levels and physical performance” value ([3]; oral 600 mg/Kg) was “significant reductions in enzyme levels and improvements in physical performance” and the Physical performance parameters [3, 5] was “greatly improved”. The “Reduction in enzyme levels” value [3, 5] was “highly significant reduction in enzyme levels” and the Effective oral dosage ([3]; oral, daily for 35 days, chicken) was 1 g/kg.

From patent US4416885A, “Use of isopropylaminopyrimidine in the chemotherapy of muscular dystrophy, myopathy and myotonia” (priority 1982, dated 1983)
